Like-named read-outs stand apart in the source and are kept apart here.
Experiments:
JAK1/2 = experiment: Cell IC50 JAK1/2 hPBMC IFNγ/pSTAT1; type: cell-based, human
ITK (IFNγ mRNA) = experiment: Pre-clinical αCD3/αCD28 stimulated IFNγ mRNA; type: cell-based; conditions: Homo sapiens
[1] = Phase 1 multiple ascending dose (MAD) study: pharmacokinetics; type: in vivo, human; conditions: for AUC(0-inf): read-out: Geometric Mean AUCINF_obs; for AUC(0-t): read-out: Geometric Mean AUC_0-12; for Tmax: read-out: Geometric Mean Tmax; for AUC: read-out: AUC0-τ
Source text: Secondary Endpoints—Compound I plasma concentrations and PK parameters: AUC0-tau, AUC0-inf, Ctrough, Cmax, tmax, Kel, t1/2, CLss/F, Vss/F, Rae.
(§1) Overall Design—This was a randomized, Investigator and participant-blind. Sponsor-unblinded, placebo-controlled study designed to evaluate the safety, tolerability, PK, and PD of Compound I in healthy participants. The study consisted of multiple cohorts assessing ascending doses of Compound I.
(§2) Approximately 60 participants were enrolled into 5 cohorts. At each dose level/cohort, a total of 10 participants were randomized to receive 2 weeks of oral doses of Compound I (n=8) or placebo (n=2). In Cohort 3, 20 participants were randomized to receive multiple oral doses of Compound I QD (n=8), Compound I TID (n=8), placebo QD (n=2), or placebo TID (n=2).
(§3) The study started with a planned dose of 5 mg twice daily (BID). Escalation to the next higher cohort was dependent on safety and PK data from all participants in the previous cohorts and was based on data from at least 6 participants up to at least 48 hours after the last dose. In no instance did the dose escalation steps exceed 3-fold the prior dose level.

[2] = Phase 1 MAD study: safety and tolerability; type: in vivo, human; conditions: for AE of Special Interest (events) / AEs (events) / ≥Grade 2 (events): 14 days
Source text: Primary Endpoints—Number and percent of adverse events (AEs) and serious adverse events (SAEs); mean change from baseline in laboratory values, vital signs, and electrocardiograms (ECGs).
as §1, §2, §3

[3] = human, plasma, oral, 5 mg, Cohort 1, 5 mg BID, Day 1
[4] = human, plasma, oral, 5 mg, Cohort 1, 5 mg BID, Day 7
[5] = human, plasma, oral, 5 mg, Cohort 1, 5 mg BID, Day 15
[6] = human, plasma, oral, 15 mg, Cohort 2, 15 mg BID, Day 1
[7] = human, plasma, oral, 15 mg, Cohort 2, 15 mg BID, Day 7
[8] = human, plasma, oral, 15 mg, Cohort 2, 15 mg BID, Day 15
[9] = human, plasma, oral, 25 mg, Cohort 4, 25 mg BID, Day 1
[10] = human, plasma, oral, 25 mg, Cohort 4, 25 mg BID, Day 7
[11] = human, plasma, oral, 25 mg, Cohort 4, 25 mg BID, Day 15
[12] = human, plasma, oral, 30 mg, Cohort 3a, 30 mg QD, Day 1
[13] = human, plasma, oral, 30 mg, Cohort 3a, 30 mg QD, Day 7
[14] = human, plasma, oral, 30 mg, Cohort 3a, 30 mg QD, Day 15
[15] = human, plasma, oral, 40 mg, Cohort 5, 40 mg BID, Day 1
[16] = human, plasma, oral, 40 mg, Cohort 5, 40 mg BID, Day 7
[17] = human, plasma, oral, 40 mg, Cohort 5, 40 mg BID, Day 15

C=CC(=O)N1C[C@H](Nc2ncnc3[nH]cc([C@H]4CC4(F)F)c23)CC[C@@H]1C [Compound I, 1-((2S,5R)-5-((5-((R)-2,2-difluorocyclopropyl)-7H-pyrrolo[2,3-d]pyrimidin-4-yl)amino)-2-methylpiperidin-1-yl)prop-2-en-1-one]
Cell IC50, JAK1/2 hPBMC IFNγ/pSTAT1 (JAK1/2): Inactive | EC50 (ITK (IFNγ mRNA)): 0.0173 ± 0.003 µM | Geometric Mean Accumulation Ratio - AUCtau (Day 15/Day 1) ([1]; Cohort 1, 5 mg BID): 1.2 | Geometric Mean Accumulation Ratio - Cmax (Day 15/Day 1) ([1]; Cohort 1, 5 mg BID): 1.2 | Geometric Mean HL_Lambda_z ([1]; Cohort 1, 5 mg BID, Day 1): 1.51 h | Geometric Mean HL_Lambda_z ([1]; Cohort 1, 5 mg BID, Day 7): 1.50 h | Geometric Mean HL_Lambda_z ([1]; Cohort 1, 5 mg BID, Day 15): 1.65 h | Geometric Mean Accumulation Ratio - AUCtau (Day 15/Day 1) ([1]; Cohort 2, 15 mg BID): 1.6 | Geometric Mean Accumulation Ratio - Cmax (Day 15/Day 1) ([1]; Cohort 2, 15 mg BID): 1.4 | Geometric Mean HL_Lambda_z ([1]; Cohort 2, 15 mg BID, Day 1): 1.53 h | Geometric Mean HL_Lambda_z ([1]; Cohort 2, 15 mg BID, Day 7): 1.66 h | Geometric Mean HL_Lambda_z ([1]; Cohort 2, 15 mg BID, Day 15): 1.65 h | Geometric Mean Accumulation Ratio - AUCtau (Day 15/Day 1) ([1]; Cohort 3a, 30 mg QD): 1.3 | Geometric Mean Accumulation Ratio - Cmax (Day 15/Day 1) ([1]; Cohort 3a, 30 mg QD): 1.1 | Geometric Mean HL_Lambda_z ([1]; Cohort 3a, 30 mg QD, Day 1): 1.90 h | Geometric Mean HL_Lambda_z ([1]; Cohort 3a, 30 mg QD, Day 7): 1.87 h | Geometric Mean HL_Lambda_z ([1]; Cohort 3a, 30 mg QD, Day 15): 1.93 h | Geometric Mean Accumulation Ratio - AUCtau (Day 15/Day 1) ([1]; Cohort 4, 25 mg BID): 1.4 | Geometric Mean Accumulation Ratio - Cmax (Day 15/Day 1) ([1]; Cohort 4, 25 mg BID): 1.3 | Geometric Mean HL_Lambda_z ([1]; Cohort 4, 25 mg BID, Day 1): 1.70 h | Geometric Mean HL_Lambda_z ([1]; Cohort 4, 25 mg BID, Day 7): 1.91 h | Geometric Mean HL_Lambda_z ([1]; Cohort 4, 25 mg BID, Day 15): 1.97 h | Geometric Mean Accumulation Ratio - AUCtau (Day 15/Day 1) ([1]; Cohort 5, 40 mg BID): 1.7 | Geometric Mean Accumulation Ratio - Cmax (Day 15/Day 1) ([1]; Cohort 5, 40 mg BID): 1.4 | Geometric Mean HL_Lambda_z ([1]; Cohort 5, 40 mg BID, Day 1): 1.78 h | Geometric Mean HL_Lambda_z ([1]; Cohort 5, 40 mg BID, Day 7): 1.85 h | Geometric Mean HL_Lambda_z ([1]; Cohort 5, 40 mg BID, Day 15): 2.34 h | Dose proportionality of geometric mean exposure (Cmax and AUC) ([1]; MAD): increases slightly greater than dose-proportional | Plasma concentration dose dependence ([1]; MAD): increased in a dose-dependent manner | Time to peak plasma concentration after dosing ([1]; MAD): ≤ 2 h | AUC(0-inf) [1, 3]: 27 ng·h/mL | AUC(0-t) [1, 3]: 26 ng·h/mL | Cmax ([1]; human, plasma, oral, 5 mg, Cohort 1, 5 mg BID, Day 1, read-out: Geometric Mean Cmax): 10.8 ng/mL | Tmax [1, 3]: 36 min | AUC(0-inf) [1, 4]: 32 ng·h/mL | AUC(0-t) [1, 4]: 32 ng·h/mL | Cmax ([1]; human, plasma, oral, 5 mg, Cohort 1, 5 mg BID, Day 7, read-out: Geometric Mean Cmax): 13 ng/mL | Tmax [1, 4]: 46.2 min | AUC(0-inf) [1, 5]: 32 ng·h/mL | AUC(0-t) [1, 5]: 32 ng·h/mL | Cmax ([1]; human, plasma, oral, 5 mg, Cohort 1, 5 mg BID, Day 15, read-out: Geometric Mean Cmax): 12.5 ng/mL | Tmax [1, 5]: 46.2 min | AUC(0-inf) [1, 6]: 71 ng·h/mL | AUC(0-t) [1, 6]: 71 ng·h/mL | Cmax ([1]; human, plasma, oral, 15 mg, Cohort 2, 15 mg BID, Day 1, read-out: Geometric Mean Cmax): 28.8 ng/mL | Tmax [1, 6]: 48.6 min | AUC(0-inf) [1, 7]: 110 ng·h/mL | AUC(0-t) [1, 7]: 109 ng·h/mL | Cmax ([1]; human, plasma, oral, 15 mg, Cohort 2, 15 mg BID, Day 7, read-out: Geometric Mean Cmax): 42.5 ng/mL | Tmax [1, 7]: 46.2 min | AUC(0-inf) [1, 8]: 111 ng·h/mL | AUC(0-t) [1, 8]: 110 ng·h/mL | Cmax ([1]; human, plasma, oral, 15 mg, Cohort 2, 15 mg BID, Day 15, read-out: Geometric Mean Cmax): 38.9 ng/mL | Tmax [1, 8]: 57.6 min | Cmax ([1]; human, plasma, oral, 15 mg, Human 15 mg, read-out: Cmax): 38.9 ng/mL | AUC(0-inf) [1, 9]: 175 ng·h/mL | AUC(0-t) [1, 9]: 173 ng·h/mL | Cmax ([1]; human, plasma, oral, 25 mg, Cohort 4, 25 mg BID, Day 1, read-out: Geometric Mean Cmax): 64.3 ng/mL | Tmax [1, 9]: 50.4 min | AUC(0-inf) [1, 10]: 265 ng·h/mL | AUC(0-t) [1, 10]: 260 ng·h/mL | Cmax ([1]; human, plasma, oral, 25 mg, Cohort 4, 25 mg BID, Day 7, read-out: Geometric Mean Cmax): 89.6 ng/mL | Tmax [1, 10]: 48.6 min | AUC(0-inf) [1, 11]: 245 ng·h/mL | AUC(0-t) [1, 11]: 240 ng·h/mL | Cmax ([1]; human, plasma, oral, 25 mg, Cohort 4, 25 mg BID, Day 15, read-out: Geometric Mean Cmax): 81.8 ng/mL | Tmax [1, 11]: 42.6 min | Cmax ([1]; human, plasma, oral, 25 mg, Human 25 mg, read-out: Cmax): 81.8 ng/mL | AUC(0-inf) [1, 12]: 312 ng·h/mL | AUC(0-t) [1, 12]: 308 ng·h/mL | Cmax ([1]; human, plasma, oral, 30 mg, Cohort 3a, 30 mg QD, Day 1, read-out: Geometric Mean Cmax): 104 ng/mL | Tmax [1, 12]: 40.8 min | AUC(0-inf) [1, 13]: 375 ng·h/mL | AUC(0-t) [1, 13]: 366 ng·h/mL | Cmax ([1]; human, plasma, oral, 30 mg, Cohort 3a, 30 mg QD, Day 7, read-out: Geometric Mean Cmax): 124 ng/mL | Tmax [1, 13]: 52.2 min | AUC(0-inf) [1, 14]: 400 ng·h/mL | AUC(0-t) [1, 14]: 392 ng·h/mL | Cmax ([1]; human, plasma, oral, 30 mg, Cohort 3a, 30 mg QD, Day 15, read-out: Geometric Mean Cmax): 119 ng/mL | Tmax [1, 14]: 57.6 min | Cmax ([1]; human, plasma, oral, 30 mg, Human 30 mg, read-out: Cmax): 119 ng/mL | AUC(0-inf) [1, 15]: 288 ng·h/mL | AUC(0-t) [1, 15]: 285 ng·h/mL | Cmax ([1]; human, plasma, oral, 40 mg, Cohort 5, 40 mg BID, Day 1, read-out: Geometric Mean Cmax): 102 ng/mL | Tmax [1, 15]: 50.4 min | AUC(0-inf) [1, 16]: 487 ng·h/mL | AUC(0-t) [1, 16]: 480 ng·h/mL | Cmax ([1]; human, plasma, oral, 40 mg, Cohort 5, 40 mg BID, Day 7, read-out: Geometric Mean Cmax): 158 ng/mL | Tmax [1, 16]: 55.2 min | AUC(0-inf) [1, 17]: 484 ng·h/mL | AUC(0-t) [1, 17]: 472 ng·h/mL | Cmax ([1]; human, plasma, oral, 40 mg, Cohort 5, 40 mg BID, Day 15, read-out: Geometric Mean Cmax): 138 ng/mL | Tmax [1, 17]: 63 min | concentration at 6 h ([1]; human, plasma, oral, 15 mg BID, steady-state, 6 hours post-dose): 4.3 ng/mL | concentration at 8 h ([1]; human, plasma, oral, 25 mg BID, steady-state, 8 hours post-dose): 5.7 ng/mL | concentration at 11.5 h ([1]; human, plasma, oral, 30 mg QD, steady-state, 11.5 hours post-dose): ~4 ng/mL | AUC ([1]; plasma, oral, Human 15 mg): 110 ng·h/mL | AUC ([1]; plasma, oral, Human 25 mg): 240 ng·h/mL | AUC ([1]; plasma, oral, Human 30 mg): 392 ng·h/mL | Deaths, serious AEs, discontinuations due to AEs ([2]; MAD): no deaths, serious AEs, or discontinuations due to AEs | Safety and tolerability conclusion ([2]; MAD): safe and well tolerated | Notable events: single episode of transient diarrhea ([2]; MAD 5 mg BID): 2 subjects | Notable events: single dermatomal zoster rash 1 week after dosing ended ([2]; MAD 40 mg BID): 1 subject | AE of Special Interest (events) ([2]; MAD cohort 5 mg BID): 3 | AEs (events) ([2]; MAD cohort 5 mg BID): 9 | ≥Grade 2 (events) ([2]; MAD cohort 5 mg BID): 1 | AE of Special Interest (events) ([2]; MAD cohort 10 mg TID): 0 | AEs (events) ([2]; MAD cohort 10 mg TID): 3 | ≥Grade 2 (events) ([2]; MAD cohort 10 mg TID): 0 | AE of Special Interest (events) ([2]; MAD cohort 15 mg BID): 0 | AEs (events) ([2]; MAD cohort 15 mg BID): 0 | ≥Grade 2 (events) ([2]; MAD cohort 15 mg BID): 0 | AE of Special Interest (events) ([2]; MAD cohort 25 mg BID): 1 | AEs (events) ([2]; MAD cohort 25 mg BID): 4 | ≥Grade 2 (events) ([2]; MAD cohort 25 mg BID): 0 | AE of Special Interest (events) ([2]; MAD cohort 30 mg QD): 0 | AEs (events) ([2]; MAD cohort 30 mg QD): 3 | ≥Grade 2 (events) ([2]; MAD cohort 30 mg QD): 0 | AE of Special Interest (events) ([2]; MAD cohort 40 mg BID): 1 | AEs (events) ([2]; MAD cohort 40 mg BID): 4 | ≥Grade 2 (events) ([2]; MAD cohort 40 mg BID): 1 | Safety and tolerability ([2]; MAD, up to 2 weeks administration in HV): safe and tolerable
